Measured values taken from publication PMC12270663, “Cagrilintide lowers bodyweight through brain amylin receptors 1 and 3” (eBioMedicine, 2025).

Experiments:
[1] = tested on: area postrema (AP) neurons of WT and RAMP1/3 KO mice; assay: Study 4 cohort 1: cFos positive neurons, AP; format: in vivo, mouse; conditions: second statistical test, Figure 4b
Description: Mice were group housed in a controlled environment maintained at 21 ± 2 °C, under a 12/12 h light–dark cycle (lights off at 11.00 h). In the first cohort, 25 male WT and 25 male RAMP1/3 KO mice aged between 12 and 20 week-old were fed chow diet and maintained under group housing condition. In the second cohort, 18 male WT, 18 male RAMP1 KO, 18 male RAMP3 KO and 18 male RAMP1/3 KO mice aged between 10 and 15 week-old were fed chow diet and maintained under group housing condition.
For both cohorts, animals were deeply anesthetised 90 min later (pentobarbital 100 mg/kg, i.p) and transcardially perfused with cold 0.1 M of phosphate buffer (PB) for 1.5 min followed by 4% of paraformaldehyde (PFA) in PB for 2.5 min. Brains were removed and postfixed overnight in 4% of PFA and cryoprotected in 20% of sucrose-PB for 24 h. Brains were frozen in hexane on dry ice and stored at −80 °C until sectioning. Stereological brain sampling of the areas of interest was performed and brain were serially cut on a cryostat (Leica Biosystems, Germany, cat# CM3050S), mounted on Superfrost Plus slides (Thermo Fisher Scientific, Reinach, Switzerland), and cryoprotected in 50% of PB, 30% of ethylene glycol, 20% of glycerol, and subsequently stored at −20 °C.
Blocking of the mouse brain sections was performed with 0.4% Triton–4% normal goat serum in PBS for 2 h at room temperature. AP/NTS and LPBN sections were incubated at 4 °C for 48 h with rabbit anti-Fos antibody (1:500, Cell signalling technology, Switzerland, Cat# 2250, RRID: AB_2247211), and then after PBS washes, incubated with goat anti-rabbit Alexa Fluor CY3 (1:200, LuBio Science GmbH, Switzerland for Jackson Immunoresearch, Cat# 111-165-144) or alexa fluor 488 for 2 h at room temperature. After thorough washing in PBS, the sections were counterstained with DAPI, mounted immediately and coverslipped with Vectashield antifade Mounting Medium (Vectorlabs, Burlingame, USA, cat# H-1400).[40]
Photomicrographs of all sections containing AP, NTS and LPBN were taken at 20× magnification using Zeiss Axio Scan.Z1 slidescanner (Center for Microscopy and Image Analysis UZH, Zeiss, Germany). All images for each study were acquired using the same exposure time. Scanned images were imported into QuPath (QuPath 0.5.0) for quantification. Three to four sections were counted and averaged per area of interest. A polygon tool was used manually to determine the boundary of the region of interest of the brain section. A cell detection tool was used to detect every cell in the section by using a built-in cell segmentation algorithm. The cell detection tool was used on the DAPI channel to make sure that only a cell was recognised and not the background or artefact by system. A detection classifier was created by using the create detection classifier function. The numbers of positive counted DAPI cells containing a cFos signal were automatically counted within the region. The experimental group was blinded to the experimenter during the analysis.

[2] = tested on: WT and RAMP1/3 KO high fat diet fed mice; assay: Study 3: 3-week treatment, food intake and body weight; format: in vivo, mouse
Description: Male mice were housed in a controlled environment maintained at 21 ± 2 °C, under a 12/12 h light–dark cycle (lights off at 11.00 h). Mice had ad libitum access to standard chow (3.14 kcal/g of food; Kliba, Switzerland, cat# 3436) and water, until 3–4 weeks old. Twenty-four WT and twenty-four RAMP 1/3 KO male mice were fed a 60% fat HFD (5.24 kcal/g of food; SSNIFF Spezialdiäten GmbH, Germany, cat# EF D12452) provided ad libitum for 18 weeks. Then mice were fed to a 45% fat HFD (4.73 kcal/g of food; SSNIFF Spezialdiäten GmbH, Germany, cat# EF D12451) provided ad libitum for 6 weeks until the end of the study. The mice were group housed (3–4 mice per cage) until 1 week before the 21-day treatment period. Each cage was equipped with a red plastic house, tissue paper, nest-building material and wood shavings. Prior to the 21-day treatment, mice were injected with vehicle for three days to acclimate to the daily subcutaneous injections and reduce stress associated with the injections.
(§1) Mice were s.c. injected once a day for 3 weeks 1 h before dark onset between 9.00 and 10.00 h. Prior to injection, daily body weight and food intake were measured manually. On the day of sacrifice, mice were anesthetised with pentobarbital (100 mg/kg, i.p., Cantonal Pharmacy of Zurich, Switzerland) 24 h after receiving the last dose of peptide.

[3] = tested on: WT and RAMP1/3 KO high fat diet fed mice; assay: Study 3: body composition by EchoMRI; format: in vivo, mouse; conditions: 150 nmol/kg/d s.c., 3 weeks
Description: as §1
Brains were harvested, snap frozen on dry ice and kept at −80 °C until mRNA extraction for next-generation sequencing (NGS) analysis. Blood samples were collected from the right ventricle of the heart during the sacrifice in 1 mL EDTA-coated tubes containing dipeptidyl peptidase-4 inhibitor (10 μL/mL blood; Sigma Aldrich, Switzerland, cat# DPP4-010) and protease inhibitor (30 μL/mL blood; Sigma Aldrich, Switzerland, cat# P2714). After centrifugation, plasma was kept at −80 °C. The mice were stored at −20 °C until body composition analysis was performed.
Lean and fat mass were measured post-mortem using EchoMRI (EchoMRI LLC, USA) at the Zurich Integrative Rodent Physiology (University of Zurich). Calibrations and measurements were performed according to manufacturer's instructions. Two measurements were performed and averaged per mouse. Fat mass and lean mass values are expressed as percent of body weight.

[4] = tested on: AMYRs and CTR; conditions: cited from earlier work
Source text: In a cellular assay, cagrilintide was confirmed to be a non-selective agonist of the CTR and AMYRs across multiple assays of proximal ...

Row | Compound | Predicted (LS) mean diff., AP cFos after square root transformation ([1]; RAMP 1/3 KO, Vehicle vs. sCT (3 nmol/kg), Tukey) | Predicted (LS) mean diff., AP cFos after square root transformation ([1]; RAMP 1/3 KO, Vehicle vs. sCT (150 nmol/kg), Tukey) | Predicted (LS) mean diff., AP cFos after square root transformation ([1]; RAMP 1/3 KO, sCT (3 nmol/kg) vs. Cagrilintide (3 nmol/kg), Tukey) | Predicted (LS) mean diff., AP cFos after square root transformation ([1]; RAMP 1/3 KO, sCT (3 nmol/kg) vs. sCT (150 nmol/kg), Tukey) | Predicted (LS) mean diff., AP cFos after square root transformation ([1]; RAMP 1/3 KO, sCT (150 nmol/kg) vs. Cagrilintide (3 nmol/kg), Tukey) | Predicted (LS) mean diff., AP cFos after square root transformation ([1]; WT, Vehicle vs. sCT (3 nmol/kg), Tukey) | Predicted (LS) mean diff., AP cFos after square root transformation ([1]; WT, Vehicle vs. sCT (150 nmol/kg), Tukey) | Predicted (LS) mean diff., AP cFos after square root transformation ([1]; WT, sCT (3 nmol/kg) vs. Cagrilintide (3 nmol/kg), Tukey) | Predicted (LS) mean diff., AP cFos after square root transformation ([1]; WT, sCT (3 nmol/kg) vs. sCT (150 nmol/kg), Tukey) | Predicted (LS) mean diff., AP cFos after square root transformation ([1]; WT, sCT (150 nmol/kg) vs. Cagrilintide (3 nmol/kg), Tukey) | Predicted (LS) mean diff., AP cFos after square root transformation ([1]; sCT (3 nmol/kg), WT vs. RAMP 1/3 KO) | Predicted (LS) mean diff., AP cFos after square root transformation ([1]; sCT (150 nmol/kg), WT vs. RAMP 1/3 KO) | acute anorectic effect on day 1 ([2]; RAMP1/3 KO mice, cagrilintide 3, sCT 150 nmol/kg s.c.) | weight gain on subchronic treatment ([2]; WT mice, 150 nmol/kg/d s.c.) | Food intake on Day 1 ([2]; WT mice, cagrilintide 3, sCT 150 nmol/kg s.c., mean ± SEM, n = 7–8/group) [g] | reduction of relative lean mass in KO mice compared to WT [3] [%] | effect on body composition ([3]; WT mice) | residence time (dissociation) ([4]; comparable for all AMYRs / all receptors) [min] | binding to AMYRs [4]
1 | CC(C)C[C@H](NC(=O)[C@H](CCCCN)NC(=O)CNC(=O)[C@H](CC(C)C)NC(=O)[C@@H](NC(=O)[C@@H]1CSSC[C@H](N)C(=O)N[C@@H](CO)C(=O)N[C@@H](CC(N)=O)C(=O)N[C@@H](CC(C)C)C(=O)N[C@@H](CO)C(=O)N[C@@H]([C@@H](C)O)C(=O)N1)C(C)C)C(=O)N[C@@H](CO)C(=O)N[C@@H](CCC(N)=O)C(=O)N[C@@H](CCC(=O)O)C(=O)N[C@@H](CC(C)C)C(=O)N[C@@H](Cc1c[nH]cn1)C(=O)N[C@@H](CCCCN)C(=O)N[C@@H](CC(C)C)C(=O)N[C@@H](CCC(N)=O)C(=O)N[C@H](C(=O)N[C@@H](Cc1ccc(O)cc1)C(=O)N1CCC[C@H]1C(=O)N[C@@H](CCCNC(=N)N)C(=O)N[C@H](C(=O)N[C@@H](CC(N)=O)C(=O)N[C@H](C(=O)NCC(=O)N[C@@H](CO)C(=O)NCC(=O)N[C@H](C(=O)N1CCC[C@H]1C(N)=O)[C@@H](C)O)[C@@H](C)O)[C@@H](C)O)[C@@H](C)O [sCT, salmon calcitonin] | -8.457 | -9.262 | 4.579 | -0.8046 | 5.384 | -8.131 | -7.632 | 1.906 | 0.4986 | 1.408 | -0.1355 | -1.439 | no effect | approx. 2 g | 1.5 ± 0.2 | 15 | no effect | 45 to 60 | 
2 | Davalintide |  |  |  |  |  |  |  |  |  |  |  |  |  |  |  |  |  |  | binds irreversibly
